Experimental data from article PMC4783701 (Scientific Reports, 2016).
Converted amounts (≈) assume the structure as drawn. “And” between values parts separate entries of the source, which are not always exact repeats. Equal values may be shown once.

Key:
[1] = biological target: PAN endonuclease (N-terminal domain of the PA subunit) (Influenza A virus, UniProt P03433); format: biochemical
influenza H1N1 virus [2] = assay: microbe, parasite or virus in culture; format: cell-based, influenza A virus; settings: for IC50: Influenza A virus, H1N1, MDCK
MTT cytotoxicity assay = format: cell-based, canine; settings: dog, MDCK cells
Procedure: Selectivity index (SI) of each compound was defined as the ratio of CC50 over IC50. CC50 value was determined with MTT assay according to the manufacturer’s protocol (Invitrogen), while IC50 data was obtained by plaque reduction assay. Both assays were done in MDCK cells and values were calculated using Sigma plot 12.0 (SPSS).

influenza H1N1 virus [3] = format: cell-based, influenza A virus
H1N1 virus = assay: microbe, parasite or virus in culture; format: cell-based; settings: Influenza A virus, H1N1, MDCK, 24 h
H3N2 virus = format: cell-based, influenza A virus; settings: MDCK, MOI 0.002, 24 h post-infection
H5N1 virus = assay: microbe, parasite or virus in culture; format: cell-based; settings: Influenza A virus, H5N1, MDCK, 24 h
H7N7 virus = assay: microbe, parasite or virus in culture; format: cell-based; settings: Influenza A virus, H7N7, MDCK, 24 h
H7N9 virus = format: cell-based, influenza A virus; settings: MDCK, MOI 0.002, 24 h post-infection
H9N2 virus = assay: microbe, parasite or virus in culture; format: cell-based; settings: Influenza A virus, H9N2, MDCK, 24 h
[4] = test system: multiple subtypes of influenza virus, including H1N1, H3N2, H5N1, H7N7, H7N9, and H9N2; format: cell-based, influenza A virus; settings: all tested subtypes; for inhibition of viral replication: serial-diluted compound
influenza H1N1 virus [5] = format: cell-based, influenza A virus; remark: listed apart in the source
[6] = biological target: influenza polymerase activity (PB1, PB2, PA, NP) (Influenza A virus, UniProt P03433); format: cell-based
PAN protein = PAN protein (Influenza A virus, UniProt P03433); assay: biochemical; format: binding
Solubility in PBS = format: physicochemical; settings: read-out: solubility limitation

## O=C1C=CC(=NS(=O)(=O)c2ccc(Cl)cc2)C=C1Cl [Compound 5158517]
[1]
  PAN Endonuclease Inhibition Postive: Y

## O=C([O-])Cc1c[nH]c2ccc(O)cc12.[K+] [Compound 5106705]
[1]
  PAN Endonuclease Inhibition Postive: Y

## O=C1C(=O)c2ccccc2C(Cl)=C1Cl [Compound 6304348]
[1]
  PAN Endonuclease Inhibition Postive: Y

## Oc1c(Br)cc(/C=N/Nc2nc3ccccc3s2)c(O)c1Br [PA-35]
Influenza H1N1 virus [2]
  Selectivity Index (CC50/IC50): 58
  plaque number reduction: reduce the plaque number in a dose-dependent manner
  IC50: 1.3 ± 0.5 µM
MTT cytotoxicity assay
  CC50: 75 ± 23 µM

## O=C1N=c2ccccc2=C1NNC1=NC(=O)/C(=C2/C(=O)Nc3ccccc32)S1 [ANA-0, (5Z)-2-[2-(2-oxoindol-3-yl)hydrazinyl]-5-(2-oxo-1H-indol-3-ylidene)-1,3-thiazol-4-one]
[1]
  IC50 compared with that of DPBA: lower IC50s
Influenza H1N1 virus [2]
  Selectivity Index (CC50/IC50): > 500
  IC50: 0.8 ± 0.1 µM
MTT cytotoxicity assay
  CC50: > 400 µM
Influenza H1N1 virus [3]
  reduction in supernatant viral titer: 2–3 log
H1N1 virus
  IC50: < 1 µM
H3N2 virus
  concentration required for similar inhibition relative to H1N1 and H9N2: 5 fold and > 5 fold
H5N1 virus
  IC50: ~2.5 µM
H7N7 virus
  IC50: ~2.5 µM
H7N9 virus
  concentration required for similar inhibition relative to H1N1 and H9N2: 5 fold and > 5 fold
H9N2 virus
  IC50: < 1 µM
[4]; 20 μM
  suppression of virus replication: more than 3 logs
[4]
  inhibition of viral replication: inhibited viral replication of all tested subtypes of influenza virus in a dose-dependent manner
Influenza H1N1 virus [5]
  antiviral efficacy when added during virus absorption (-1 h) and then removed: did not exert antiviral efficacy
  intracellular and supernatant vRNA when added at 1 h p.i. and maintained: significant decrease of viral RNAs
  intracellular viral mRNA production: reduced the viral mRNA production
  vRNAs in cell lysates: subsequent decrease of vRNAs in cell lysates
[6]
  luciferase activity (viral polymerase function): dose-dependent suppression of luciferase activity
PAN protein
  Kd: 1.1 µM
Solubility in PBS
  solubility: 1000 µg/mL (≈ 2570 µM)

## C=CCN1C(=O)/C(=C\c2cccn2-c2ccc([N+](=O)[O-])cc2)C(=O)NC1=S [PA-48]
Influenza H1N1 virus [2]
  Selectivity Index (CC50/IC50): 10
  plaque number reduction: reduce the plaque number in a dose-dependent manner
  IC50: 2 ± 0.1 µM
MTT cytotoxicity assay
  CC50: 20 ± 5 µM

## CN(C)c1ccc(/C=C2\S/C(=N\N=C3\C(=O)Nc4ccccc43)NC2=O)cc1 [PA-30]
[1]
  IC50 compared with that of DPBA: lower IC50s
Influenza H1N1 virus [2]
  Selectivity Index (CC50/IC50): > 200
  plaque number reduction: reduce the plaque number in a dose-dependent manner
  IC50: 1.5 ± 0.2 µM
MTT cytotoxicity assay
  CC50: > 300 µM
Influenza H1N1 virus [3]
  reduction in supernatant viral titer: 2–3 log
[4]
  inhibition of viral replication: inhibited viral replication of all tested subtypes of influenza virus in a dose-dependent manner
PAN protein
  Kd: 1.3 µM

## CC(=O)N[C@H]1[C@H]([C@H](O)[C@H](O)CO)OC(C(=O)O)=C[C@@H]1N=C(N)N [zanamivir, reference compound]
Influenza H1N1 virus [5]
  intracellular and supernatant vRNA when added at 1 h p.i. and maintained: reduced the vRNA in the supernatant but not inside the cells

## Nc1c(C(=O)O)cc(O)c2c1C(=O)c1ccccc1C2=O [Compound 5302115]
[1]
  PAN Endonuclease Inhibition Postive: Y
Influenza H1N1 virus [2]
  Anti-H1N1 Positive: Y

## O=C1C=CC(=O)C(C(=CNCc2ccccc2)[N+](=O)[O-])=C1 [Compound 5261378]
[1]
  PAN Endonuclease Inhibition Postive: Y

## Nc1c(C(=O)O)cc(O)c2c1C(=O)c1ccccc1C2=O [PA-24]
Influenza H1N1 virus [2]
  Selectivity Index (CC50/IC50): 129
  plaque number reduction: reduce the plaque number in a dose-dependent manner
  IC50: 1.4 ± 0.3 µM
MTT cytotoxicity assay
  CC50: 180 ± 15 µM

## CN(C)c1ccc(C=C2SC(=NN=C3C(=O)Nc4ccccc43)NC2=O)cc1 [Compound 5404571]
[1]
  PAN Endonuclease Inhibition Postive: Y
Influenza H1N1 virus [2]
  Anti-H1N1 Positive: Y

## Oc1c(Br)cc(C=NNc2nc3ccccc3s2)c(O)c1Br [Compound 5482349]
[1]
  PAN Endonuclease Inhibition Postive: Y
Influenza H1N1 virus [2]
  Anti-H1N1 Positive: Y

## C=CCN1C(=O)C(=Cc2cccn2-c2cccc([N+](=O)[O-])c2)C(=O)NC1=S [Compound 5987504]
[1]
  PAN Endonuclease Inhibition Postive: Y
Influenza H1N1 virus [2]
  Anti-H1N1 Positive: Y
